This note sets out measurements from patent publication US20040005299A1, “Method for producing pseudo islets” (Bayer Pharmaceuticals Corporation, priority 2002, published 2004).

Assay [1] has as its system pseudo islets (dispersed islet cells). The assay is described as follows: cells. In kind it is cell-based, Sprague Dawley rats. The following applies: for IC50: dose-dependent, read-out: IC50 of inhibition of glucose-stimulated insulin release; for EC50: 8 mM glucose, read-out: EC50 on insulin release. As for the experimental part: Pancreata from four Sprague Dawley rats were divided into small pieces approximately 1 mm^2 or smaller in size. The tissue was then rinsed three times with Hanks-Hepes buffer (127 mM NaCl, 5.4 mM KCl, 0.34 mM Na2HPO4, 4.4 mM KH2PO4, 20 mM HEPES, 1.2 mM CaCl2/5 mM glucose), and digested with collagenase (Liberase, 0.25 mg/ml, Roche Diagnostic Corp., Indianapolis, Ind.) at 37° C. in a water bath shaker for 10 minutes.
The digested pancreata tissue was rinsed three times with 50 ml of Hanks-Hepes buffer to remove the collagenase. The tissue pellet was then filtered through a 250 μm filter and the filtrate was mixed with 16 ml of 27% Ficoll (Sigma, St. Louis, Mo.) w/v in Hanks-Hepes buffer. Three layers of Ficoll (23%, 20.5%, and 11%, respectively; 8 ml of each concentration) were then loaded on top of the mixture of islet tissue in 27% Ficoll to form a gradient.
The Ficoll gradient was then centrifuged at 1,600 rpm for 10 minutes at room temperature. The pancreatic islets were concentrated at the interphase between 11% and 20.5%, and between 20.5% and 23% depending on the size of islets. The islets were collected from the two interphases and rinsed twice with Ca^++-free Hanks-Hepes buffer. The islets were then suspended in 5 ml Ca^++-free Hanks-Hepes buffer containing 1 mM EDTA and incubated for 8 minutes at room temperature.
Trypsin and DNAse I were added to the islet suspension for a final concentration of 25 μg/ml and 2 μg/ml, respectively. This suspension was incubated with shaking at 30° C. for 10 minutes. The trypsin digestion was stopped by adding 40 ml RPMI 1640 (GIBCO Life Technologies, Invitrogen, Carlsbad, Calif.) with 10% FBS. The trypsin digested islet cells were then filtered through a 63 μm nylon filter (PGC Scientific, Frederick, Md.) to remove large cell clusters.
The dispersed islet cells were then washed, counted using hemacytometer under the microscope, and seeded into “V-bottom” 96-well plates (2,500 cells per well). However, a range of 1,000 to 10,000 cells per well may used. The dispersed islet cell suspension was then centrifuged at 1,000 rpm for 5 minutes. The Hanks-Hepes buffer was removed and replaced with 200 μl RPMI 1640 medium containing 10% FBS, 1% Penicillin-Streptomycin, and 2 mM L-glutamine. Next, the 96-well plates were centrifuged at 1,000 rpm for 5 minutes to collect the dispersed islet cells concentrated at the V-bottom of the plate forming pseudo islets. These pseudo islets were then cultured overnight in a cell culture incubator at 37° C. with 5% CO2, and then used for assays.
(§1) Pseudo islets were prepared by the method described in Example 1. Following an overnight incubation, the RPMI 1640 medium was removed and replaced by 100 μl Krebs-Ringer-Hepes buffer (115 mM NaCl, 5.0 mM KCl, 24 mM NaHCO3, 2.2 mM CaCl2, 1 mM MgCl2, 20 mM HEPES, 0.25% BSA, 0.002% Phenol Red, pH 7.35-7.40). The cell suspension was then centrifuged for 5 minutes at 1,000 rpm to pellet the dispersed islet cells.
Pseudo islets in 96-well plates were incubated in a water bath at 37° C. continuously gassed with 95% O2/5% CO2 for pre-incubation for 30 minutes. The pre-incubation buffer was removed and replaced with 50 μl incubation buffer (Krebs-Ringer-Hepes buffer, pH 7.35-7.40) containing various test substrates.
The 96-well plate was centrifuged again at 1,000 rpm for 5 minutes to form pseudo islets. These pseudo islets in 96-well plates were statically incubated in a water bath at 37° C. continuously gassed with 95% O2/5% CO2 for 60 minutes. The incubation buffer (25 μl) was collected after the 60-minute incubation and used for an insulin content assay (ELISA assay, ALPCO, N.H.).

The subject of assay [2] is pseudo islets co-cultured with fibroblasts. The assay is described as follows: Insulin release from pseudo islets co-cultured with fibroblasts. To be noted: increasing amounts of GLP-1. The class given is cell-based, Sprague Dawley rats. The protocol:
Dispersed islet cells (prepared by the method described in Example 1) were washed with regular RPMI 1640 medium with 10% FBS, counted using hemacytometer under the microscope, and seeded into “V-bottom” 96-well plates with fibroblasts (2,500 islet cells and 1,250 fibroblasts cells per well). The cell suspension was then centrifuged at 1,000 rpm for 5 minutes to collect the dispersed islet cells concentrated at the V-bottom of the plate forming pseudo islets. These pseudo islets were then co-cultured with the fibroblasts cells overnight in a cell culture incubator at 37° C. with 5% CO2, and then used for assays.
as §1
Pseudo islets in 96-well plates were incubated in a water bath at 37° C. continuously gassed with 95% O2/5% CO2 for pre-incubation for 30 minutes. The pre-incubation buffer was removed and replaced with 50 μl incubation buffer (Krebs-Ringer-Hepes buffer, pH 7.35-7.40) containing various test substrates. […]

Like-named read-outs stand apart in the source and are kept apart here.

In general, IC50 refers to the concentration needed to halve the response being measured. As usually defined, the EC50 is the concentration giving half of the maximal effect.

Turning to `NC[C@H](O)c1ccc(O)c(O)c1` [NE, norepinephrine], the IC50 in assay [1] (Rattus norvegicus) came out at 56.7 nM.

For the molecule `COc1ccc(Cl)cc1C(=O)NCCc1ccc(S(=O)(=O)NC(=O)NC2CCCCC2)cc1` [glybenclamide], the concentration for a half-maximal effect (EC50) in assay [1] (Rattus norvegicus) turned out to be 370 nM. Regarding `C[C@H](N)C(=O)NCC(=O)N[C@H]1CSSC[C@@H](C(=O)O)NC(=O)[C@H](CO)NC(=O)[C@H]([C@@H](C)O)NC(=O)[C@H](Cc2ccccc2)NC(=O)[C@H]([C@@H](C)O)NC(=O)[C@H](CCCCN)NC(=O)[C@H](Cc2c[nH]c3ccccc23)NC(=O)[C@H](Cc2ccccc2)NC(=O)[C@H](Cc2ccccc2)NC(=O)[C@H](CC(N)=O)NC(=O)[C@H](CCCCN)NC1=O` [somatostain], in assay [1], the half-inhibitory concentration (IC50) was 0.9 nM. On to `C=C[C@@]1(C)CC(=O)[C@]2(O)[C@@]3(C)[C@@H](O)CCC(C)(C)[C@@H]3[C@H](O)[C@H](OC(C)=O)[C@@]2(C)O1` [forskolin], for which, in assay [1] (Rattus norvegicus), the EC50 amounted to 900 nM. As for `CC[C@H](C)[C@H](NC(=O)[C@H](Cc1ccccc1)NC(=O)[C@H](CCC(=O)O)NC(=O)[C@H](CCCCN)NC(=O)[C@H](C)NC(=O)[C@H](C)NC(=O)[C@H](CCC(N)=O)NC(=O)CNC(=O)[C@H](CCC(=O)O)NC(=O)[C@H](CC(C)C)NC(=O)[C@H](Cc1ccc(O)cc1)NC(=O)[C@H](CO)NC(=O)[C@H](CO)NC(=O)[C@@H](NC(=O)[C@H](CC(=O)O)NC(=O)[C@H](CO)NC(=O)[C@@H](NC(=O)[C@H](Cc1ccccc1)NC(=O)[C@@H](NC(=O)CNC(=O)[C@H](CCC(=O)O)NC(=O)[C@H](C)NC(=O)[C@@H](N)Cc1c[nH]cn1)[C@@H](C)O)[C@@H](C)O)C(C)C)C(=O)N[C@@H](C)C(=O)N[C@@H](Cc1c[nH]c2ccccc12)C(=O)N[C@@H](CC(C)C)C(=O)N[C@H](C(=O)N[C@@H](CCCCN)C(=O)NCC(=O)N[C@@H](CCCNC(=N)N)C(N)=O)C(C)C` [GLP-1], the “GLP-1 mediated insulin secretion on co-culture with fibroblasts” value in assay [2] is on record as “enhanced”.

Take `CC(C)Cn1c(=O)n(C)c(=O)c2[nH]cnc21` [IBMX]: in assay [1], the half-maximal effective concentration (EC50) was determined as 21900 nM. As for `CC(=O)OCC[N+](C)(C)C` [Ach, Acetylcholine], the EC50 in assay [1] (Rattus norvegicus) was determined as 10100 nM.
